# Measurements reported in patent US9821000B2, “Compounds, compositions and corresponding uses for preventing and/or treating of dyslipidemia” (CENTRE NATIONAL DE LA RECHERCHE SCIENTIFIQUE (CNRS), priority 2013, dated 2017).
# Experiments:
# Type in all cases: cell-based, Saccharomyces cerevisiae
# [1] = test system: QM strain; experiment: Toxicity test on QM strain (growth inhibition haloes); settings: after three days
# Protocol: 5 μl drops of OAG, LPA or oleic acid were deposited, from stock solutions in the concentrations indicated, on the surface of an agar medium on which the QM strain had been preliminarily spread. […] These haloes are on the contrary not observed in the presence of LPA and OAG.
# At the same time, wild strains (WT) and QM are cultivated in aerobic conditions under stirring and at 28° C., in a YPG liquid medium before seeding 3500 cells per cm^2 of YPG+agar 2% (m/v). Following this transfer to solid medium, 1 μL drops of solutions of different compounds at 1, 10 and 100 mM in DMSO or EtOH are deposited on the surface of the agar. Separately, deposits of DMSO and EtOH are also made in order to assess the intrinsic toxicity of these two solvents. After three days of culture of 28° C., the toxicity of the tested compounds is evaluated by comparing the diameters of the growth inhibition haloes obtained for the deposits of undissolved solvents with those of the deposits of different concentrations of compounds tested.
# [2] = test system: hem1Δ yeasts; experiment: Restoration of growth of lipo-intoxicated hem1Δ yeasts (drop test on agar); settings: SFA accumulation conditions; 5 μl drops on agar; after three days
# Protocol: FIG. 3B—The hem1Δ yeasts were cultivated in conditions of SFA accumulation as indicated. 5 μl drops of OAG, LPA and oleic acid in the concentrations indicated were then deposited on the surface of the agar medium. The restoration of growth of the hem1Δ yeasts is observed in the formation of colonies after three days.
# The strain carrying the hem1Δ strain is cultivated, under aerobic conditions, under stirring and at 28° C., in a YPG^A liquid medium (YPG (yeast extract 1% (m/v), peptone 1% (m/v) and glucose 2% (m/v)) supplemented with δ-aminolevulinic acid (ALA) at 80 μg/mL). Lipotoxicity by saturated fatty acids (SFA) is prompted by depletion of unsaturated fatty acids (UFA)—the synthesis of which is dependent on the presence of haem (prosthetic grouping of the enzyme Ole1p especially)—by transfer into YPG^+ medium (YPG supplemented with ergosterol at 80 μg/mL to compensate for the depletion in sterol obtained under these conditions). The lipotoxicity can be induced in a solid medium YPG^++agar 2% (m/v) in transferring 3500 cells (hem1Δ coming from a pre-culture in YPG^A)/cm^2 or *alternatively in a liquid medium in inoculating 2·10^6 cells/mL of YPG^+. Classically, the effects of lipotoxicity on SFA are analyzed 7 h after the transfer into YPG^+ medium. The capacity of a compound to counter the deleterious effects of lipotoxicity with SFA is for its part evaluated successively with the addition of this compound on (or in) the YPG^+ transfer medium after seeding with cells.
# 1) Screening of compounds: Following the induction of lipotoxicity with SFA (for hem1Δ cultivated in a solid medium), 5 μL drops of solutions of different compounds at 10 mM in dimethylsulfoxide (DMSO) or in ethanol (EtOH) are deposited on the surface of agar. The capacity of a compound to counter the lipo-induced stoppage of cell growth is estimated by the appearance of a halo of hem1Δ colonies at the position of the deposit of said compound after three days of culture at 28° C. (cf. Deguil et al., 2011).
# [3] = test system: hem1Δ yeasts; experiment: Phospholipid fatty acid content by mass spectrometry in lipo-intoxicated hem1Δ yeasts
# Protocol: The hem1Δ yeasts were cultivated in standard conditions (control) or in conditions of SFA accumulation without (Ø) or with the addition of 100 μM of oleic acid, LPA or OAG as indicated.
# FIG. 6A—After 7 h of incubation, the phospholipids (PL) were extracted and the different species of phosphatidylcholine (PC), which constitute the predominantly present PL were analyzed by mass spectrometry in positive mode, according to Pineau et al. (2008).
# FIG. 6B—All the species of PL detectable in these conditions of mass spectrometry were analyzed to globally quantify the content in SFA forms.
# The hem1Δ strain is cultivated in a YPG^A, YPG^+ or YPG^+ liquid medium+200 μM of compound to be tested in aerobic conditions, under stirring and at 28° C. for 7 h, starting from an initial cell concentration of 2·10^6 cells/mL. At the end of the culture, 10^8 cells are collected in order to carry out the extraction of the total lipids. After the cells have been put in suspension in 1 mL of distilled water at 4° C., 500 μL of glass beads (Ø 0.6 mm) are added and the whole mixture then undergoes three sequences of 20 seconds at 5000 rpm in a stirrer (the tubes are kept on ice between each of the three sequences). The cellular lysate then obtained, complemented with water for rinsing the beads (1 mL), is then transferred into a 40 mL glass tube (Corex™) and then the lipids are extracted by using a methanol:chloroform ratio of 2:1 (v/v). Initially, 6 mL of methanol are added and the entire mixture is vortexed for 30 seconds and then incubated for 15 minutes at 65° C. Once the mixture has been cooled to ambient temperature, […] of chloroform is added and then the entire mixture is again vortexed for 30 seconds before allowing the extraction to take place for 16 h. Subsequently, the sample is centrifuged for 12 minutes at 10000 g and then the supernatant is transferred into a new Corex™ tube. After the addition of 2 mL of chloroform and then 4 mL of distilled water, the entire mixture is vortexed for 30 seconds and then centrifuged for 8 minutes at 3000 g. After elimination of the resultant upper phase, the lower organic phase is collected in a hemolysis tube made of glass. Finally, the solvent is evaporated under a nitrogen stream at 80° C. to obtain total cell lipid samples.
# The samples of total cell lipids are put back into suspension in 1 mL of dichloromethane in being vortexed for 30 seconds. The entire mixture is deposited on a silica column (BOND ELUT-SI, 100 mg 1 mL) preconditioned with 3 mL of methanol and then 2 mL of dichloromethane successively. The fraction retained by the column is then washed with 2 mL of dichloromethane and then 2 mL of acetone successively. Finally, 2 mL of a mixture of chloroform/methanol/water 50:45:5 (v/v/v) are deposited on the column and the phospholipids thus eluted are collected in a glass hemolysis tube. The solvent is evaporated under nitrogen at 80° C. to obtain the samples of cellular phospholipids.
# Once put back into suspension in 100 μL of mixture Mix^− (isopropanol/acetonitrile/water 2:1:1 (v/v/v)+triethylamine 1% (v/v)) or mixture Mix^+ (isopropanol/acetonitrile/water 2:1:1 (v/v/v)+formic acid 1% (v/v)), the samples are analyzed by mass spectrometry (Electro Spray Ionization-Mass Spectrometry (ESI-MS)) in negative or positive mode respectively and the results obtained serve to analyze the fatty acid content of the different species of phospholipids.
structure (smiles),measurement,setting,value
"CCCCCCCC/C=C\CCCCCCCC(=O)O [oleic acid, reference compound]",toxicity for cells that do not synthesize triglycerides,[1]; QM strain on agar medium,toxicity
same,haloes of growth inhibition (absence of colonies),"[1]; QM strain, 5 μl drops on agar",haloes of growth inhibition (absence of colonies) can be observed
same,restoration of growth of lipo-intoxicated hem1Δ yeasts (formation of colonies),[2],restore the growth
same,plasticity of membranes previously lipo-intoxicated by SFAs,[3]; hem1Δ yeast model,restores the plasticity of the membranes
same,production of di-unsaturated phospholipids (level of PC species 36:2),"[3]; hem1Δ, SFA accumulation, 100 μM compound, 7 h",increase of the level of this species
